Measured values as given in patent US5861476A, “Peptides and compounds that bind to the IL-1 receptor” (Affymax Technologies N.V., priority 1995, dated 1999).
Read-outs that look alike come from different tables or passages of the source. Where a SMILES comes first, the peptide text is derived from it. Where no end group is shown, it is not given here. [ ]: non-standard residue; d: D form. pY = N[C@@H](Cc1ccc(OP(=O)(O)O)cc1)C(=O)O; 1Nal = N[C@@H](Cc1cccc2ccccc12)C(=O)O; Aze = O=C(O)[C@@H]1CCN1

How the values were obtained:
[1] = target: T1, IL-1 induced down-regulation of the epidermal growth factor (EGF) receptor in normal human dermal fibroblasts (NHDF) (Homo sapiens, UniProt P14778); assay: Epidermal Growth Factor Receptor Down Regulation Assay; assay type: cell-based; settings: 37° C., in the presence of IL-1α, 125I-labeled EGF binding, read-out: IC50 (approximate concentration which blocked 50% of the IL-1 induced down regulation of the EGF receptor)
T1 sequence (P14778 18-569): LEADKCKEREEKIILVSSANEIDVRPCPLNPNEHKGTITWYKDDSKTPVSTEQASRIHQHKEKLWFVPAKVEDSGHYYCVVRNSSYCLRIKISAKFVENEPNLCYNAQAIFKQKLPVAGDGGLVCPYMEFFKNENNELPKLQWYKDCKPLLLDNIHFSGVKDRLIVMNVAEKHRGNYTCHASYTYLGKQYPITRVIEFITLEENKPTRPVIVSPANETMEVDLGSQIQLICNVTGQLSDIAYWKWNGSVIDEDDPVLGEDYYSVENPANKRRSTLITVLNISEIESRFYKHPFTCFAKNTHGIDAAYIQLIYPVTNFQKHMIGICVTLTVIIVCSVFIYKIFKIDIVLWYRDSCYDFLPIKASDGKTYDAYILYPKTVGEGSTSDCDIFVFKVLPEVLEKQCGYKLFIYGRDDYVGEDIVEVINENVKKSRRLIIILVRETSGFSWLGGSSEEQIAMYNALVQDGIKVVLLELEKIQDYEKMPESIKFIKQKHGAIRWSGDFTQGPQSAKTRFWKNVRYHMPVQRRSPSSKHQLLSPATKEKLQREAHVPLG
Description: The protocol set forth in Bird and Saklatvala (1989) J. Immunol. […] This assay examines the effect of the compounds of the invention on the IL-1 induced down-regulation of the epidermal growth factor (EGF) receptor as measured by the binding of ^125 I-labeled EGF to its receptor in normal human dermal fibroblasts (NHDF). […] The table below lists the approximate concentration of representative peptides of the invention which blocked 50% of the IL-1 induced down regulation of the EGF receptor. IC50 values are indicated symbolically by the symbols "-", "+", and "++". […] Those peptides which give IC50 values of less than or equal to 100 μM are given a "+", while those which give IC50 values of 500 nM or less are indicated with a "++". Those peptides which give IC50 values at or near the cutoff point for a particular symbol are indicated with a hybrid, e.g. "±". Those peptides for which IC50 values were not determined are listed as "N.D".

[2] = target: T2, IL-1 induced E-selectin in HUVEC cells (Homo sapiens, UniProt P14778); assay: Peptide Effects on IL-1 Induced E-Selectin (HUVEC Cells); assay type: cell-based; settings: 120 pM IL-1α, read-out: IC50 (concentration required to inhibit 50% of IL-1 induced E-selectin expression)
T2 sequence (P14778 18-569): T1 sequence (P14778 18-569)
Experimental: The compounds of the present invention were assayed for their ability to inhibit the expression of IL-1 induced E-selectin in HUVEC cells (human umbilical vein endothelial cells). HUVEC cells are grown to confluency in the wells of a 24-well microtiter plate. The compounds were serially diluted in DMEM/F12+0.1% BSA ("SFM"with 120 pM IL-1α. The cells were washed and then incubated with IL-1α and the compound to be tested for 15 minutes. The cells were again washed and incubated in SFM for 4 hours. The cells were washed and incubated with anti-selectin antibody for 30 minutes. Following antibody incubation, the cells were incubated with ^125 I Protein A and washed. The amount of ^125 I bound to the cells was then determined. The concentration of compounds required to inhibit 50% of IL-1 induced E-selectin expression is shown below.

IL-1RtI = target: T3, IL-1RtI (Homo sapiens, UniProt P14778); assay: Inhibition of 125I-IL-1α binding to IL-1RtI (Example 3)
T3 construct: made in house; host or cells: recombinant host cells (one form soluble from baculovirus transformed host cells; another PIG-tailed and cleaved from the cell surface)
T3 sequence (P14778 18-336): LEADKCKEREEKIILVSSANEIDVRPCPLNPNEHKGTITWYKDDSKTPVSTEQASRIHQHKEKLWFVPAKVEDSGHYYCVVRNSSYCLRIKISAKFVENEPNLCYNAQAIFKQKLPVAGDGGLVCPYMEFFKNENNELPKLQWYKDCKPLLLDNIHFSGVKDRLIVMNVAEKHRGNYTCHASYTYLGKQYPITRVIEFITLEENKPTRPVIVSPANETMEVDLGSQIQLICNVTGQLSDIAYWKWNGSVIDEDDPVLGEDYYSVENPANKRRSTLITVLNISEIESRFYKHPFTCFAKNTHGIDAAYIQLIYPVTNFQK
Outline: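 Competition with 90 pM 125I-IL-1α was run in duplicate for 2 h at 4 °C in HEPES-buffered RPMI with 1% BSA, pH 7.2-7.3, against either antibody-captured truncated receptor or cells with full-length IL-1RtI. Gamma counting of NaOH-detached material gave approximate IC50; high-affinity peptides used 24-well format.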

[3] = inhibition of 125I-IL-1α binding to IL-1RtI, soluble peptide unless marked *

Row | Compound | IC50 [1] [µM] | IC50 [2] [µM] | IC50 (IL-1RtI; [3]) [µM] | IC50 (IL-1RtI) [µM]
1 | CC(=O)N[C@@H](Cc1ccccc1)C(=O)N[C@@H](CCC(=O)O)C(=O)N[C@@H](Cc1c[nH]c2ccccc12)C(=O)N[C@H](C(=O)N1CCC[C@H]1C(=O)NCC(=O)N[C@@H](Cc1ccc(O)cc1)C(=O)N[C@@H](Cc1ccc(O)cc1)C(=O)N[C@@H](CCC(N)=O)C(=O)N1CC[C@H]1C(=O)N[C@@H](Cc1ccc(O)cc1)C(N)=O)[C@@H](C)O [AcFEWTPGYYQJY--NH2] (Ac-FEWTPGYYQ[Aze]Y-NH2) | 0.5 | ≤ 0.5 | – | –
2 | CC(=O)N[C@@H](Cc1ccccc1)C(=O)N[C@@H](CCC(=O)O)C(=O)N[C@@H](Cc1c[nH]c2ccccc12)C(=O)N[C@H](C(=O)N1CCC[C@H]1C(=O)N[C@H](C)C(=O)N[C@@H](Cc1ccc(O)cc1)C(=O)N[C@@H](Cc1c[nH]c2ccccc12)C(=O)N[C@@H](CCC(N)=O)C(=O)N1CC[C@H]1C(=O)N[C@@H](Cc1ccc(O)cc1)C(N)=O)[C@@H](C)O [AcFEWTPaYWQJY--NH2] (Ac-FEWTP[dA]YWQ[Aze]Y-NH2) | ≤ 100 | ≤ 0.5 | – | –
3 | CC(=O)N[C@@H](Cc1ccccc1)C(=O)N[C@@H](CCC(=O)O)C(=O)N[C@@H](Cc1c[nH]c2ccccc12)C(=O)N[C@H](C(=O)N1CCC[C@H]1C(=O)N[C@H](C)C(=O)N[C@@H](Cc1ccc(O)cc1)C(=O)N[C@@H](Cc1ccc(O)cc1)C(=O)N[C@@H](CCC(N)=O)C(=O)N1CC[C@H]1C(=O)N[C@@H](Cc1ccc(O)cc1)C(N)=O)[C@@H](C)O [AcFEWTPaYYQJY--NH2] (Ac-FEWTP[dA]YYQ[Aze]Y-NH2) | ≤ 100 | ≤ 0.5 | – | –
4 | CC(=O)N[C@@H](Cc1ccccc1)C(=O)N[C@@H](CCC(=O)O)C(=O)N[C@@H](Cc1c[nH]c2ccccc12)C(=O)N[C@H](C(=O)N1CCC[C@H]1C(=O)NCC(=O)N[C@@H](Cc1ccc(O)cc1)C(=O)N[C@@H](Cc1c[nH]c2ccccc12)C(=O)N[C@@H](CCC(N)=O)C(=O)N1CC[C@H]1C(=O)N[C@@H](Cc1ccc(O)cc1)C(N)=O)[C@@H](C)O [AcFEWTPGYWQJY--NH2] (Ac-FEWTPGYWQ[Aze]Y-NH2) | ≤ 100 | ≤ 0.5 | ≤ 0.5 | –
5 | CC(=O)N[C@@H](Cc1ccccc1)C(=O)N[C@@H](CCC(=O)O)C(=O)N[C@@H](Cc1c[nH]c2ccccc12)C(=O)N[C@H](C(=O)N1CCC[C@H]1C(=O)NCC(=O)N[C@@H](Cc1c[nH]c2ccccc12)C(=O)N[C@@H](Cc1ccc(O)cc1)C(=O)N[C@@H](CCC(N)=O)C(=O)N1CC[C@H]1C(=O)N[C@@H](Cc1ccc(O)cc1)C(N)=O)[C@@H](C)O [AcFEWTPGWYQJY--NH2] (Ac-FEWTPGWYQ[Aze]Y-NH2) | 0.5 | ≤ 0.5 | ≤ 0.5 | –
6 | DGYDRWRQSGERYWQPYALPL | ≤ 0.5 | – | ≤ 0.5 | –
7 | YIPFTWEESNAYYWQPYALPL | ≤ 0.5 | – | – | –
8 | FEWTPGYWQPYALPLSD-NH2 [FEWTPGYWQPYALPLSD--NH2] | ≤ 0.5 | – | – | –
9 | CC(C)C[C@H](NC(=O)[C@@H]1CCCN1C(=O)[C@H](CC(C)C)NC(=O)[C@H](C)NC(=O)[C@H](Cc1ccc(O)cc1)NC(=O)[C@@H]1CCN1C(=O)[C@H](CCC(N)=O)NC(=O)[C@H](Cc1c[nH]c2ccccc12)NC(=O)[C@H](Cc1ccc(O)cc1)NC(=O)[C@@H](NC(=O)[C@H](Cc1ccccc1)NC(=O)[C@@H](N)[C@@H](C)O)C(C)C)C(=O)O [TFVYWQJYALPL] (H-TFVYWQ[Aze]YALPL-OH) | > 100 | – | ≤ 100 | –
10 | CC(C)C[C@H](NC(=O)[C@@H]1CCCN1C(=O)[C@H](CC(C)C)NC(=O)[C@H](C)NC(=O)[C@H](Cc1ccc(O)cc1)NC(=O)[C@@H]1CCN1C(=O)[C@H](CCC(N)=O)NC(=O)[C@H](Cc1ccc(O)cc1)NC(=O)[C@H](Cc1c[nH]c2ccccc12)NC(=O)CNC(=O)[C@@H]1CCCN1C(=O)[C@@H](NC(=O)[C@H](Cc1c[nH]c2ccccc12)NC(=O)[C@H](CCC(=O)O)NC(=O)[C@@H](N)Cc1ccccc1)[C@@H](C)O)C(=O)O [FEWTPGWYQJYALPL] (H-FEWTPGWYQ[Aze]YALPL-OH) | – | ≤ 0.5 | – | –
11 | CC(C)C[C@H](NC(=O)[C@@H]1CCCN1C(=O)[C@H](CC(C)C)NC(=O)[C@H](C)NC(=O)[C@H](Cc1ccc(O)cc1)NC(=O)[C@@H]1CCCN1C(=O)[C@H](CCC(N)=O)NC(=O)[C@H](Cc1c[nH]c2ccccc12)NC(=O)[C@H](Cc1ccc(O)cc1)NC(=O)[C@H](NC(=O)[C@H](Cc1ccccc1)NC(=O)[C@@H](N)[C@@H](C)O)C(C)C)C(=O)O [TFvYWQPYALPL] (H-TF[dV]YWQPYALPL-OH) | > 100 | – | – | –
12 | CC(C)C[C@H](NC(=O)[C@@H]1CCCN1C(=O)[C@H](CC(C)C)NC(=O)[C@H](C)NC(=O)[C@H](Cc1ccc(O)cc1)NC(=O)[C@@H]1CCN1C(=O)[C@H](CCC(N)=O)NC(=O)[C@H](Cc1ccc(O)cc1)NC(=O)[C@H](Cc1ccc(O)cc1)NC(=O)CNC(=O)[C@@H]1CCCN1C(=O)[C@@H](NC(=O)[C@H](Cc1c[nH]c2ccccc12)NC(=O)[C@H](CCC(=O)O)NC(=O)[C@@H](N)Cc1ccccc1)[C@@H](C)O)C(=O)O [FEWTPGYYQJYALPL] (H-FEWTPGYYQ[Aze]YALPL-OH) | ≤ 0.5 | ≤ 0.5 | – | –
13 | CC(C)C[C@H](NC(=O)[C@@H]1CCCN1C(=O)[C@H](CC(C)C)NC(=O)[C@H](C)NC(=O)[C@H](Cc1ccc(O)cc1)NC(=O)[C@@H]1CCN1C(=O)[C@H](CCC(N)=O)NC(=O)[C@H](Cc1ccc(OP(=O)(O)O)cc1)NC(=O)[C@H](Cc1cccc2ccccc12)NC(=O)[C@@H](N)Cc1ccc(OP(=O)(O)O)cc1)C(=O)O [pY(1Nap)pYQJYALPL] (H-[pY][1Nal][pY]Q[Aze]YALPL-OH) | ≤ 0.5 | – | – | < 0.5
14 | CC(=O)N[C@@H](Cc1ccccc1)C(=O)N[C@@H](CCC(=O)O)C(=O)N[C@@H](Cc1c[nH]c2ccccc12)C(=O)N[C@H](C(=O)N1CCC[C@H]1C(=O)N[C@H](C)C(=O)N[C@@H](Cc1c[nH]c2ccccc12)C(=O)N[C@@H](Cc1ccc(O)cc1)C(=O)N[C@@H](CCC(N)=O)C(=O)N1CC[C@H]1C(=O)N[C@@H](Cc1ccc(O)cc1)C(N)=O)[C@@H](C)O [AcFEWTPaWYQJY--NH2] (Ac-FEWTP[dA]WYQ[Aze]Y-NH2) | ≤ 100 | ≤ 0.5 | – | –
15 | C[C@@H](O)[C@H](NC(=O)[C@H](Cc1c[nH]c2ccccc12)NC(=O)[C@H](CCC(=O)O)NC(=O)[C@@H](N)Cc1ccccc1)C(=O)N1CCC[C@H]1C(=O)NCC(=O)N[C@@H](Cc1ccc(O)cc1)C(=O)N[C@@H](Cc1c[nH]c2ccccc12)C(=O)N[C@@H](CCC(N)=O)C(=O)N1CC[C@H]1C(=O)N[C@@H](Cc1ccc(O)cc1)C(N)=O [FEWTPGYWQJY--NH2] (H-FEWTPGYWQ[Aze]Y-NH2) | ≤ 100 | – | ≤ 0.5 | –
16 | CC(C)C[C@H](NC(=O)[C@@H]1CCCN1C(=O)[C@H](CC(C)C)NC(=O)[C@H](C)NC(=O)[C@H](Cc1ccc(O)cc1)NC(=O)[C@@H]1CCN1C(=O)[C@H](CCC(N)=O)NC(=O)[C@H](Cc1c[nH]c2ccccc12)NC(=O)[C@H](Cc1ccc(O)cc1)NC(=O)CNC(=O)[C@@H]1CCCN1C(=O)[C@@H](NC(=O)[C@H](Cc1c[nH]c2ccccc12)NC(=O)[C@H](CCC(=O)O)NC(=O)[C@@H](N)Cc1ccccc1)[C@@H](C)O)C(=O)O [FEWTPGYWQJYALPL] (H-FEWTPGYWQ[Aze]YALPL-OH) | ≤ 0.5 | ≤ 0.5 | – | –
17 | ETPFTWEESNAYYWQPYALPL | ≤ 0.5 | – | ≤ 0.5 | –
